For data set [1], the system named is eosinophil infiltration. The data set is described as follows: Murine model of Ascaris-induced bronchial inflammation: eosinophil infiltration into bronchoalveolar lavage fluid. The format is in vivo. Conditions: mouse. On the procedure: The VLA-4 inhibitors may be further characterized in in vivo assays. One such assay examines the inhibition of eosinophil infiltration into the bronchoalveolar lavage fluid in the mouse (murine) model. In this assay, the animals are treated with cyclophosphamide on day 0. On days 2 and 14, the animals are immunized intraperitoneally with Ascaris suum extract. Seven days later, the animals are treated with various doses of the VLA-4 inhibitor. Shortly after drug administration, the animals are challenged with Ascaris suum extract by instillation into the trachea. Bronchoalveolar lavage of the animal is performed by instilling saline into the lung, 48 hours later. Total cell and eosinophil counts in the lavage are determined.

Data set [2] is described as follows: in vivo. Conditions: monkey, serum, intravenous, 2 mg/kg.
The nature of data set [3]: Mouse bio-assay: serum concentration after oral dosing, determined by direct binding assay of diluted serum. Conditions: female, Balb/c, serum, po.
Procedure: A compound was dissolved or suspended with an appropriate solvent at 1 mg/mL. Female Balb/c mice (7–9 weeks old) were given the compound orally. Blood samples were collected from the postcaval vein of the anesthetized mice after fifteen minutes. Serum was prepared and stored at −20° C. Serum concentration of the compound was determined from inhibitory activities of the diluted serum by a direct binding assay using VLA-4-expressing cells and VCAM-IgG fusion protein. Serum concentration determined by this method correlated well with the concentration determined by LC/MS/MS methodologies.

The results in this text go back to US7179819B2, “VLA-4 inhibitor compounds” (Daiichi Pharmaceutical Co., Ltd., priority 1999, dated 2007).

Several values for one entry are separate records, joined by “and”; a condition that tells them apart may be missing. Identical values can stand only once. Counter-ions that a name gives are not always drawn.

With “4-(N′-2-methylphenylurea)phenylacetyl-LDVP-OH [reference compound]”, the “% Inhibition of Eosinophil Infiltration” value in data set [1] (oral dosage of 50 mg/kg) is reported as −2%.

On to `CC(C)NCC(O)COc1ccc(CC(N)=O)cc1` (stereo not drawn) [ATENOLOL, reference compound], for which, in data set [2], the concentration at 5 min was determined as 4060 ng/mL, the concentration at 30 min amounted to 1190 ng/mL, the concentration at 1 hr came out at 771 ng/mL and the concentration at 2 hr was 479 ng/mL. In data set [2], this compound came in with a concentration at 4 hr of 348 ng/mL and a concentration at 8 hr of 137 ng/mL.

What is called melting point is the temperature, or range, at which the solid turns liquid. Compound `COc1cc(C(=O)O)ccc1C#CC1CCCN1C(=O)Cc1ccc(NC(=O)Nc2ccccc2C)c(OC)c1` (stereo not drawn) [Compound 36, 3-methoxy4-[2-[1-[3-methoxy4-[N′-(2-methylphenyl)ureido]phenylacetyl]-2-pyrrolidinyl]ethynyl]benzoic acid] registered a melting point of 141 to 145 °C. Moreover, the “inhibition of eosinophil infiltration” value in data set [1] (oral dosage of 30 mg/kg) worked out at 49%.

Consider `COc1cc(CC(=O)N2CCC[C@H]2COc2ccc(C(=O)O)cc2)ccc1NC(=O)Nc1ccccc1Cl` [Compound 58, 4-[1-[4-[N′-(2-chlorophenyl)ureido]-3-methoxylphenylacetyl]-(2S)-pyrrolindinyl]methoxybenzoic acid], for which the concentration at 30 min in data set [3] (50 mg/kg) is 3610 ng/mL.

Take `Cc1ccccc1NC(=O)Nc1ccc(CC(=O)N2C[C@@H](F)C[C@H]2COc2ccc(C(=O)O)cc2)cc1C` [Compound 78, 4-[(4S)-fluoro-1-[3-methyl-4-[N′-(2-methylphenyl)ureido]phenylacetyl]-(2S)-pyrrolidinyl]methoxybenzoic acid]: the concentration at 15 min in data set [3] (10 mg/kg) is 368 ng/mL.

As to `Cc1ccccc1NC(=O)Nc1ccc(CC(=O)N2C[C@@H](F)C[C@H]2COc2ccc(C(=O)O)cc2)c(F)c1F` [Compound 97, 4-[1-[4-[N′-(2-methylphenyl)ureido]-2,3 difluorophenylacetyl]-(4S)-fluoro-(2S)-pyrrolidinylmethoxy]benzoic acid], the concentration at 15 min in data set [3] (10 mg/kg) worked out at 1730 ng/mL.

`Cc1ccccc1NC(=O)Nc1cc(F)c(CC(=O)N2C[C@@H](F)C[C@H]2COc2ccc(C(=O)O)cc2)cc1F` [Compound 98, 4-[1-[4-[N′-(2-methylphenyl)ureido]-2,5-difluorophenylacetyl]-(4S)-fluoro-(2S)-pyrrolidinylmethoxy]benzoic acid] registered a concentration at 15 min in data set [3] (10 mg/kg) of 2800 ng/mL.

Compound `COc1cc(CC(=O)N2C[C@@H](Cl)C[C@H]2COc2ccc(C(=O)O)cc2)ccc1NC(=O)Nc1ccccc1Cl` [Compound 102, 4-[(4S)-chloro-1-[3-methoxy-4-[N′-(2-chlorophenyl)ureido]phenylacetyl]-(2S)-pyrrolidinyl]methoxybenzoic acid] returned a melting point of 126 to 131 °C. In data set [3] (10 mg/kg), this compound displayed a concentration at 15 min of 503 ng/mL.

In the case of `COc1cc(CC(=O)N2C[C@@H](Oc3ccc4ccccc4c3)C[C@H]2COc2ccc(C(=O)O)cc2)ccc1NC(=O)Nc1ccccc1Cl` [Compound 124, 4-[(2S,4S)-1-[4-[N′-(2-chlorophenyl)ureido]-3-methoxyphenylacetyl]-4-(2-naphtyloxy)-2-pyrrolidinyl]methoxybenzoic acid], the concentration at 15 min in data set [3] (10 mg/kg) turned out to be 841 ng/mL.

`COc1cc(CC(=O)N2C[C@@H](OC)C[C@H]2COc2ccc(C(=O)O)cc2)ccc1NC(=O)Nc1ccccc1Br` [Compound 134, 4-[(2S,4S)-1-[4-[N′-(2-bromophenyl)ureido]-3-methoxyphenylacetyl]-4-methoxy-2-pyrrolidinyl]methoxybenzoic acid] gave a concentration at 15 min in data set [3] (10 mg/kg) of 224 ng/mL.

In turn, `COc1cc(CC(=O)N2[C@H](COc3ccc(C(=O)O)cc3)CC[C@@H]2c2ccccc2)ccc1NC(=O)Nc1ccccc1Cl` [Compound 146, 4-[1-[4-[N′-(2-chlorophenyl)ureido]-3-methoxyphenylacetyl]-5-(R)-phenyl-2-(S)-pyrrolidinylmethoxy]benzoic acid] yielded a concentration at 15 min in data set [3] (10 mg/kg) of 527 ng/mL.

The compound `COc1cc(CC(=O)N2C3CCCCC3C[C@H]2COc2ccc(C(=O)O)cc2)ccc1NC(=O)Nc1ccccc1Cl` (stereo partly drawn) [Compound 166, 4-[1-[4-[N′-(2-chlorophenyl)ureido]-3-methoxyphenylacetyl]-(2S)-octahydroindolylmethoxy]benzoic acid] had a melting point of 133 to 136 °C. In data set [3] (10 mg/kg), this compound yielded a concentration at 15 min of 360 ng/mL.

On to `COc1cc(CC(=O)N2C3CCCCC3C[C@H]2COC2CCC(C(=O)O)CC2)ccc1NC(=O)Nc1ccccc1Br` (stereo partly drawn) [Compound 179, cis-4-[-1-[4-[N′-(2-bromophenyl)ureido]-3-methoxylphenylacetyl]-(2S)-octahydroindolylmethoxy]cyclohexanecarboxylic acid], for which the melting point lay within 115 to 120 °C. The concentration at 15 min in data set [3] (10 mg/kg) worked out at 428 ng/mL.

For `COc1cc(CC(=O)N(C)CCOc2ccc(C(=O)O)cc2N)ccc1NC(=O)Nc1ccccc1F` [Compound 292, 3-amino-4-[[2-[3-methoxy-4-[N′-(2-fluorophenyl)ureido]phenylacetyl]methylamino]ethoxy]benzoic acid], the melting point is 125 to 130 °C.

Turning to `COc1cc(CC(=O)N[C@@H](C)COc2ccc(C(=O)O)cc2N)ccc1NC(=O)Nc1ccccc1C` [Compound 293, (S)-3-amino-4-[2-[3-methoxy-4-[N′-(2-methylphenyl)ureido]phenylacetylamino]-1-propoxy]benzoic acid], the melting point was in the range of 200 to 204 °C.

With `COc1cc(CC(=O)N[C@@H](C)COc2ccc(C(=O)O)cc2)ccc1NC(=O)Nc1ccccc1Br` [Compound 294, (S)-4-[2-[3-methoxy-4-[N′-(2-bromophenyl)ureido]phenylacetylamino]-1-propoxy]benzoic acid], the melting point fell in the range of 202 to 205 °C.

`COc1cc(CC(=O)N(C)CCNc2ccc(C(=O)O)c(NC(C)=O)c2)ccc1NC(=O)Nc1ccccc1Br` [Compound 303, 2-acetylamino-4-[2-N-[4-[N′-(2-bromophenyl)ureido]-3-methoxyphenyl]-N-methylacetamido]ethylaminobenzoic acid]: the melting point is 155 to 160 °C.

In data set [3] (10 mg/kg), `C#CCN(CCOc1ccc(C(=O)O)cc1)C(=O)Cc1ccc(NC(=O)Nc2ccccc2Cl)c(OC)c1` [Compound 309, 4-[2-N-[4-[N′-(2-chlorophenyl)ureido]-3-methoxyphenyl]-N-propargylacetamido]-ethoxybenzoic acid] gave a concentration at 15 min of 669 ng/mL.

Take `C=CCN(CCOc1ccc(C(=O)O)cc1)C(=O)Cc1ccc(NC(=O)Nc2ccccc2Br)c(OC)c1` [Compound 311, 4-[2-N-allyl-N-[4-[N′(2-bromophenyl)ureido]-3-methoxyphenyl]acetamido]ethoxybenzoic acid]: the “% Inhibition of Eosinophil Infiltration” value in data set [1] (50 mg/kg t.i.d. × 2 days, p.o.) is 42.5%; in data set [1] (50 mg/kg t.i.d. × 2 days, s.c., 50 mg/kg), 80.2% and 49.3%.

For the compound `COC(=O)c1ccc(OCCN(CCN2CCOCC2)C(=O)Cc2ccc(NC(=O)Nc3ccccc3C)c(OC)c2)cc1` [Compound 314, methyl 4-[2-N-[2-(4-morpholinyl)ethyl]-N-[3-methoxy-4-[N′-(2-methylphenyl)ureido]phenyl]-acetamido]ethoxybenzoate], in data set [1] (50 mg/kg t.i.d. × 2 days, p.o.), the “% Inhibition of Eosinophil Infiltration” value came out at 18.9%. In data set [3] (50 mg/kg), the concentration at 30 min stood at 2310 ng/mL.

In data set [3] (50 mg/kg), `COc1cc(CC(=O)N(CCOc2ccc(C(=O)OC(C)C)cc2)CCN2CCOCC2)ccc1NC(=O)Nc1ccccc1C` [Compound 318, isopropyl 4-[2-N-[2-(4-morpholinyl)ethyl]-N-[3-methoxy-4-[N′-(2-methylphenyl)ureido]phenyl]acetamido]ethoxybenzoate] registered a concentration at 30 min of 2100 ng/mL.

The compound `COc1cc(CC(=O)N(CCOc2ccc(C(=O)O)cc2)CCN2CCC(F)(F)C2)ccc1NC(=O)Nc1ccccc1Br` [Compound 319, 4-[2-N-[2-(3,3-difluoro-1-pyrrolidinyl)ethyl]-N-[4-[N′-(2-bromophenyl)ureido]-3-methoxyphenyl]acetamido]ethoxybenzoic acid sodium salt] had a concentration at 15 min in data set [3] (50 mg/kg) of 603 ng/mL.

`C=CCN(CC=C)CCN(CCOc1ccc(C(=O)O)cc1)C(=O)Cc1ccc(NC(=O)Nc2ccccc2Cl)c(OC)c1` [Compound 323, 4-[2-N-(N′, N′-diallyl)ethyl-N-[4-[N′-(2-chlorophenyl)ureido]-3-methoxyphenylacetamido]ethoxy]benzoic acid sodium salt] showed a concentration at 15 min in data set [3] (50 mg/kg) of 1420 ng/mL.

Regarding `Cc1cc(CC(=O)N2C[C@@H](F)C[C@H]2COc2ccc(C(=O)O)cc2)ccc1NC(=O)Nc1c(Cl)cccc1Cl` [Example 83, 4-[(2S, 4S)-1-[4-[N′-(2,6-Dichlorophenyl)ureido]-3-methylphenylacetyl]4-fluoro-2-pyrrolidinyl]methoxybenzoic acid], the melting point is 174 to 180 °C (dec.).

As to `COc1cc(CC(=O)N2C[C@@H](NS(=O)(=O)c3cccc4c(N(C)C)cccc34)C[C@H]2COc2ccc(C(=O)O)cc2)ccc1NC(=O)Nc1ccccc1Br` [Example 155, 4-[1-[4-[N′-(2-bromophenyl)ureido]-3-methoxyphenylacetyl]-4dansylamino-(2S)-pyrrolidinyl]methoxybenzoic acid], the melting point is 138 to 141 °C.
